Data taken from US7329726B2, “Physiologically active peptides” (Seiren Kabushiki Kaisha, priority 2004, dated 2008).
Where two headings read alike, the source gives them in different places. Peptide text beside a SMILES is read from it.

B1: Peptide B: peptide having the amino acid sequence of SEQ ID NO: 3, 2 repeats of the 38 amino acid sequence contained in natural sericin (WO 02/086133) (protein)
chain: SSTGSSSNTDSNSNSAGSSTSGGSSTYGYSSNSRDGSVSSTGSSSNTDSNSNSAGSSTSGGSSTYGYSSNSRDGSV
modifications: Peptide derived from sericin

Assays:
insect cell Sf9 [1] = format: cell-based; details: Sf9 cells; for Survival rate (%) Average ± Standard deviation (n = 4): Sf900IISFM medium without FCS, 5 days at 27.5° C.
Method: Cell death-preventing activity of the peptide according to the present invention was evaluated using an insect cell Sf9 (Invitrogen).
The Sf9 cell is usually subcultured using an Sf900IISFM medium (Invistrogen) containing 10% FCS (fetal calf serum) (Sigma) at a temperature of 27.5° C. It is known that marked cell death occurs when the Sf9 cells thus cultured are abruptly transferred into a medium without FCS and thus exposed to drastic serum-deprived conditions. In this test, cells to be tested were exposed under such drastic serum-deprived conditions and their survival rate was measured to evaluate cell death-preventing effect of the peptide according to the present invention.
First, Sf9 cells subcultured using a medium supplemented with 10% FCS were centrifuged at 1000 rpm at 4° C. for 5 minutes. Next, the supernatant was removed and the precipitated cells were suspended in an Sf900IISFM medium without FCS. The suspension was recentrifuged at 1000 rpm at 4° C. for 5 minutes to wash the cells.
Next, in order to expose the cells under drastic serum-deprived conditions, the washed cells were resuspended in an Sf900IISFM medium without FCS and a cell suspension having a cell density of 5×10^5 cells/ml was prepared.
On the other hand, peptide A (the present invention) was dissolved in an Sf900IISFM medium without FCS and peptide solutions were prepared at peptide concentrations of 0.2 mg/ml, 0.6 mg/ml, and 2.0 mg/ml. The peptide solutions thus prepared were sterilized by filtration.
Next, 50 μl of the abovementioned cell suspension and 50 μl each of the abovementioned peptide solutions were dispensed on a 96-well cell culture plate at a final cell density of 2.5×10^5 cells/ml and final peptide concentrations of 0.1 mg/ml, 0.3 mg/ml, and 1.0 mg/ml, respectively. This culture plate was incubated at 27.5° C. for 5 days.
After 5 days of incubation, cells were stained with Trypan blue and the number of dead cells and the number of viable cells were counted to obtain the survival rate. Here the survival rate means the ratio of the viable cell count to the total cell count upon cell counting.
As a comparative example, an experiment was carried out in the same manner as described above for peptide A, except that peptide B was used in place of peptide A (the present invention), to obtain the survival rate.
As another comparative example, an experiment was carried out in the same manner as described above for peptide A, except that a bovine serum albumin (Sigma) solution was used in place of the abovementioned peptide solutions, to obtain the survival rate.

insect cell Sf9 [2] = test: Evaluation Test 2: Cell growth-promoting activity (MTT assay under serum-deprived conditions); format: cell-based; details: Sf9 cells; for OD 595 nm Average ± Standard deviation (n = 4): medium without FCS, 9 days at 27.5° C.
Method: Cell growth-promoting activity of the peptide according to the present invention was evaluated using an insect cell Sf9 (Invitrogen).
It is known that marked cell death as shown in Evaluation Test 1 and thereafter a decrease in cell growth occur when the Sf9 cells are exposed to drastic serum-deprived conditions. In this test, the cells to be tested were exposed under such drastic serum-deprived conditions and their growth ability was measured to evaluate cell growth-promoting effect of the peptide according to the present invention.
A cell suspension was prepared in the same manner as in Evaluation test 1, and peptide solutions were prepared using peptide A (the present invention) as in Evaluation test 1. Next, 50 μl of this cell suspension and 50 μl each of the peptide solutions were dispensed on a 96-well cell culture plate in the same manner as in Evaluation test 1, and this culture plate was incubated at 27.5° C. for 9 days.
After 9 days of incubation, cell growth-promoting effect was evaluated by the MTT assay.
Specifically, to each well of the 96-well plate incubated for 9 days was added 5 μl of 5 mg/ml 3-(4,5-dimethyl-2-thiazolyl)-2,5-diphenyl tetrazolium bromide (MTT) in phosphate-buffered physiological saline, and the plate was incubated at 27.5° C. for further 5 hours. During this culture process, MTT is transformed into insoluble formazan in viable cells. After 5 hours of incubation, cell culture supernatant was completely removed and then 200 μl each of a 10 mM […] solution with 10% SDS was added to each well to completely dissolve the cells and formazan in the cells. Next, the absorption coefficient at 595 nm was measured for each well using a microplate reader.
As a comparative example, an experiment was carried out in the same manner as the one with the abovementioned peptide A, except that peptide B was used in place of peptide A (the present invention), and then the absorption coefficient at 595 nm was measured for each well.
As another comparative example, an experiment was carried out in the same manner as described above for peptide A, except that a bovine serum albumin (Sigma) solution was used in place of the abovementioned peptide solutions, and then the absorption coefficient at 595 nm was measured for each well.
Here the value of the absorption coefficient in the NTT assay increases with an increase in viable cell density.

[3] = sample concentration 1.0 mg/ml, listed as peptide A

Molecule	Survival rate (%) Average ± Standard deviation (n = 4) (insect cell Sf9 [1]; sample concentration 0.1 mg/ml) [%]	Survival rate (%) Average ± Standard deviation (n = 4) (insect cell Sf9 [1]; sample concentration 0.3 mg/ml) [%]	Survival rate (%) Average ± Standard deviation (n = 4) (insect cell Sf9 [1]; sample concentration 1.0 mg/ml) [%]	Survival rate (%) Average ± Standard deviation (n = 4) (insect cell Sf9 [1]; [3])	survival rate compared with peptide B (comparative example) (insect cell Sf9 [1]; serum-deprived, 5 days)	OD 595 nm Average ± Standard deviation (n = 4) (insect cell Sf9 [2]; sample concentration 0.1 mg/ml)	OD 595 nm Average ± Standard deviation (n = 4) (insect cell Sf9 [2]; sample concentration 0.3 mg/ml)	OD 595 nm Average ± Standard deviation (n = 4) (insect cell Sf9 [2]; sample concentration 1.0 mg/ml)	OD 595 nm Average ± Standard deviation (n = 4) (insect cell Sf9 [2]; [3])	cell growth-promoting activity compared with peptide B (comparative example) (insect cell Sf9 [2]; serum-deprived, 9 days)
C[C@@H](O)[C@H](NC(=O)[C@H](CO)NC(=O)[C@H](CO)NC(=O)CNC(=O)CNC(=O)[C@@H](N)CO)C(=O)N[C@@H](Cc1ccc(O)cc1)C(=O)NCC(=O)N[C@@H](Cc1ccc(O)cc1)C(=O)N[C@@H](CO)C(=O)O [Peptide A] (H-SGGSSTYGYS-OH; N-terminus assumed)	28.5 ± 3.4	47.3 ± 2.9	58.0 ± 3.2	about 60%	higher than that with peptide B	0.48 ± 0.01	0.80 ± 0.02	0.92 ± 0.02	about 0.9	higher than that with peptide B
bovine serum albumin [reference compound]	–	62.5 ± 3.0	–	–	–	–	0.90 ± 0.03	–	–	–
B1	–	46.1 ± 2.2	–	–	–	–	0.72 ± 0.03	–	–	–
